One experiment concerns HCT116 WT cells. Kind of experiment: HCT116 WT cell proliferation / viability (CellTiter-Glo, 6 days). The experiment is classed as cell-based. As to conditions: Homo sapiens, HCT-116, 144 h, HCT116 WT cells, 6 days, CellTiter-Glo; read-out: HCT-116 WT IC50. The essentials: (§1)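 IC50 values derive from sigmoidal dose-response fits, some with Hill slope fixed at −1 and top constrained to 100%, others from 4-parameter logistic models. They reflect CellTiter-Glo viability after 6 days of compound exposure at up to 10 or 50 μM.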
A general note: Cellular ATP, detected with luciferase, serves as a proxy for viable cell number.

The test system of the next experiment is HCT116 MTAP null cells. Kind of experiment: HCT116 MTAP null cell proliferation / viability (CellTiter-Glo, 6 days). The following applies: HCT116-MTAP null, 144 h, HCT116 MTAP null cells, 6 days, CellTiter-Glo; read-out: HCT-116 MTAP null IC50. The format is cell-based. The essentials:
as §1

pIC50: −log10 of the molar value. Some results are limits rather than exact numbers.

Turning to `CN(Cc1ccc(S(F)(F)(F)(F)F)cc1)C(=O)c1cc2c3c(c(N)nc2cc1Cl)COC3` [Example 513, 4-amino-7-chloro-N-methyl-N-(4-(pentafluoro-lambda~6~- sulfanyl)benzyl)-1,3-dihydrofuro[3,4-c]quinoline-8-carboxamide], the values for the pIC50 with HCT116 WT cells and in the experiment with HCT116 MTAP null cells were 6.07 and 7.72, respectively.
The corresponding values for `CCN(Cc1ccc(C(F)(F)F)cc1)C(=O)c1ccc2nc(N)c3c(c2c1)COC3` [Example 706, 4-amino-N-ethyl-N-(4-(trifluoromethyl)benzyl)-1,3-dihydrofuro[3,4-c]quinoline-8-carboxamide] are 5.46 and 6.76.
The corresponding values for `C[C@H]1OCc2c1c(N)nc1ccc(C(=O)N(Cc3ccc(C(F)(F)F)nn3)CC3CC3)cc21` [Example 333, (3R)-4-amino-N-(cyclopropylmethyl)-3-methyl-N-((6-(trifluoromethyl)-3-pyridazinyl)methyl)-1,3-dihydrofuro[3,4-c]quinoline-8-carboxamide] are 5.85 and 7.62.
The corresponding values for `Nc1nc2cnc(C(=O)N(Cc3ccc(C(F)(F)F)cn3)C3CC3)cc2c2c1COC2` [Example 365, 4-amino-N-cyclopropyl-N-((5-(trifluoromethyl)-2-pyridinyl)methyl)-1,3-dihydrofuro[3,4-c][1,7]naphthyridine-8-carboxamide] are 5.19 and 7.12.
For the compound `CC(c1ccc(C(F)(F)F)cn1)N(C)C(=O)c1cnc2nc(N)c3c(c2c1)COC3` (racemic) [Example 700, 4-amino-N-methyl-N-((1R)-1-(5-(trifluoromethyl)-2-pyridinyl)ethyl)-1,3-dihydrofuro[3,4-c][1,8]naphthyridine-8-carboxamide and 4-amino-N-methyl-N-((1S)-1-(5-(trifluoromethyl)-2-pyridinyl)ethyl)-1,3-dihydrofuro[3,4-c][1,8]naphthyridine-8-carboxamide], the pIC50 was under 5.00 in the experiment on HCT116 WT cells and 5.96 with HCT116 MTAP null cells.
Turning to `Nc1nc2ccc(C(=O)N(Cc3ccc(C(F)(F)F)cn3)Cc3ncccn3)cc2c2ccsc12` [Example 636, 4-amino-N-(2-pyrimidinylmethyl)-N-((5-(trifluoromethyl)-2-pyridinyl)methyl)thieno[2,3-c]quinoline-8-carboxamide], the negative-log IC50 (pIC50) is 5.52 in the experiment on HCT116 WT cells and 6.83 with HCT116 MTAP null cells.
The corresponding values for `C[C@H]1OCc2c1c(N)nc1ccc(C(=O)N(C)Cc3ccc(C4CC4)cn3)cc21` [Example 356, (3R)-4-amino-N-((5-cyclopropyl-2-pyridinyl)methyl)-N,3-dimethyl-1,3-dihydrofuro[3,4-c]quinoline-8-carboxamide] are 5.27 and 7.04.
Regarding `Cn1ncc2c3cc(C(=O)N(Cc4ccc(C(F)(F)F)cn4)C4CC4)c(Cl)cc3nc(N)c21` [Example 808, 4-amino-7-chloro-N-cyclopropyl-3-methyl-N-((5-(trifluoromethyl)-2-pyridinyl)methyl)-3H-pyrazolo[3,4-c]quinoline-8-carboxamide], the pIC50 with HCT116 WT cells is 5.50; in the experiment on HCT116 MTAP null cells, 7.28.
The corresponding values for `Nc1nc2cnc(C(=O)N(Cc3ccc(C(F)(F)F)cn3)C34CC(C3)C4)cc2c2c1COC2` [Example 689, 4-amino-N-(bicyclo[1.1.1]pentan-1-yl)-N-((5-(trifluoromethyl)-2-pyridinyl)methyl)-1,3-dihydrofuro[3,4-c][1,7]naphthyridine-8-carboxamide] are 5.59 and 7.02.
The corresponding values for `Cn1cc(N(Cc2ccc(C(F)(F)F)cn2)C(=O)c2ccc3nc(N)c4c(cnn4C)c3c2)cn1` [Example 495, 4-amino-3-methyl-N-(1-methyl-1H-pyrazol-4-yl)-N-((5-(trifluoromethyl)-2-pyridinyl)methyl)-3H-pyrazolo[3,4-c]quinoline-8-carboxamide] are 5.20 and 7.10.
The corresponding values for `Cc1cc2nc(N)c3cnn(C)c3c2cc1C(=O)N(C)Cc1ccc(C(F)(F)F)cn1` [Example 521, 4-amino-N,1,7-trimethyl-N-((5-(trifluoromethyl)-2-pyridinyl)methyl)-1H-pyrazolo[4,3-c]quinoline-8-carboxamide] are 6.16 and 7.74.
Turning to `Nc1nc2cc(F)c(C(=O)N(Cc3ccc(C4CC4)cn3)C3CC3)cc2c2c1COC2` [Example 370, 4-amino-N-cyclopropyl-N-((5-cyclopropyl-2-pyridinyl)methyl)-7-fluoro-1,3-dihydrofuro[3,4-c]quinoline-8-carboxamide], the negative logarithm of the IC50 (pIC50) in the experiment on HCT116 WT cells is 5.86; in the experiment on HCT116 MTAP null cells, 7.54.
The corresponding values for `CN(Cc1ccc(C2CC2)cn1)C(=O)c1ccc2nc(N)c3c(c2c1)COC3` [Example 323, 4-amino-N-((5-cyclopropyl-2-pyridinyl)methyl)-N-methyl-1,3-dihydrofuro[3,4-c]quinoline-8-carboxamide] are 4.82 and 6.45.
The corresponding values for `C[C@H]1OCc2c1c(N)nc1cnc(C(=O)N(Cc3ccc(OC(F)F)nn3)CC3CC3)cc21` [Example 424, (3R)-4-amino-N-(cyclopropylmethyl)-N-((6-(difluoromethoxy)-3-pyridazinyl)methyl)-3-methyl-1,3-dihydrofuro[3,4-c][1,7]naphthyridine-8-carboxamide] are 5.87 and 7.49.
The corresponding values for `CC(C)N(Cc1ccc(C(F)(F)F)nn1)C(=O)c1cc2c3c(c(N)nc2cn1)COC3` [Example 366, 4-amino-N-(2-propanyl)-N-((6-(trifluoromethyl)-3-pyridazinyl)methyl)-1,3-dihydrofuro[3,4-c][1,7]naphthyridine-8-carboxamide] are 4.90 and 6.76.
Take `Cn1ncc2c(N)nc3cc(Cl)c(C(=O)N(Cc4ccc(C(F)(F)F)nn4)C4CC4)cc3c21` [Example 796, 4-amino-7-chloro-N-cyclopropyl-1-methyl-N-((6-(trifluoromethyl)-3-pyridazinyl)methyl)-1H-pyrazolo[4,3-c]quinoline-8-carboxamide]: the negative logarithm of the IC50 (pIC50) with HCT116 WT cells was 5.78; with HCT116 MTAP null cells, 7.47.
The corresponding values for `C[C@H](c1ncccn1)N(Cc1ccc(C(F)(F)F)cn1)C(=O)c1ccc2nc(N)c3c(c2c1)COC3` [Example 653, 4-amino-N-((1R)-1-(2-pyrimidinyl)ethyl)-N-((5-(trifluoromethyl)-2-pyridinyl)methyl)-1,3-dihydrofuro[3,4-c]quinoline-8-carboxamide] are 7.14 and 8.10.
The corresponding values for `CC(C)N(Cc1ccc(C(F)(F)F)nn1)C(=O)c1cc2c3c(c(N)nc2cc1F)COC3` [Example 358, 4-amino-7-fluoro-N-(2-propanyl)-N-((6-(trifluoromethyl)-3-pyridazinyl)methyl)-1,3-dihydrofuro[3,4-c]quinoline-8-carboxamide] are 5.09 and 6.92.
For `C[C@H](c1ncccn1)N(Cc1ccc(C(F)F)cn1)C(=O)c1cnc2nc(N)c3c(c2c1)CCC3` [Example 625, 6-amino-N-((5-(difluoromethyl)-2-pyridinyl)methyl)-N-((1R)-1-(2-pyrimidinyl)ethyl)-8,9-dihydro-7H-cyclopenta[c][1,8]naphthyridine-2-carboxamide], the negative logarithm of the IC50 (pIC50) in the experiment with HCT116 WT cells was 5.80; in the experiment on HCT116 MTAP null cells, 6.89.
Take `CC(c1ncccn1)N(Cc1ccc(C#N)cn1)C(=O)c1ccc2nc(N)c3c(c2c1)COC3` (racemic) [Example 616, 4-amino-N-((5-cyano-2-pyridinyl)methyl)-N-((1R)-1-(2-pyrimidinyl)ethyl)-1,3-dihydrofuro[3,4-c]quinoline-8-carboxamide and 4-amino-N-((5-cyano-2-pyridinyl)methyl)-N-((1S)-1-(2-pyrimidinyl)ethyl)-1,3-dihydrofuro[3,4-c]quinoline-8-carboxamide]: the pIC50 was 6.38 in the experiment on HCT116 WT cells and 7.74 with HCT116 MTAP null cells.
For `CCN(Cc1ccc(C(F)(F)F)nn1)C(=O)c1cc2c(cc1Cl)nc(N)c1cnn(C)c12` [Example 794, 4-amino-7-chloro-N-ethyl-1-methyl-N-((6-(trifluoromethyl)-3-pyridazinyl)methyl)-1H-pyrazolo[4,3-c]quinoline-8-carboxamide], the figures for the negative-log IC50 (pIC50) in the experiment on HCT116 WT cells and with HCT116 MTAP null cells were 6.30 and 7.70, respectively.
As for `C[C@@H](c1ccc(C(F)(F)F)cn1)N(C(=O)c1cc2c3c(c(N)nc2cn1)COC3)c1cnn(C)c1` (single isomer, unassigned) [Example 826], the pIC50 in the experiment on HCT116 WT cells is 4.57; in the experiment with HCT116 MTAP null cells it was 5.17.
Take `Cn1cc(N(Cc2ccc(C(F)(F)F)nn2)C(=O)c2cc3c4c(c(N)nc3cc2Cl)COC4)cn1` [Example 751, 4-amino-7-chloro-N-(1-methyl-1H-pyrazol-4-yl)-N-((6-(trifluoromethyl)-3-pyridazinyl)methyl)-1,3-dihydrofuro[3,4-c]quinoline-8-carboxamide]: the figures for the negative-log IC50 (pIC50) in the experiment with HCT116 WT cells and with HCT116 MTAP null cells were 6.47 and 7.77, respectively.
The corresponding values for `CN(Cc1ccc(S(F)(F)(F)(F)F)cc1)C(=O)c1cc2c(cc1F)nc(N)c1c2cnn1C` [Example 515, 4-amino-7-fluoro-N,3-dimethyl-N-(4-(pentafluoro-lambda~6~- sulfanyl)benzyl)-3H-pyrazolo[3,4-c]quinoline-8-carboxamide] are 5.47 and 7.10.
Take `Cc1noc2c1c(N)nc1ccc(C(=O)N(Cc3ccc(C(F)(F)F)cn3)C(C)c3ncccn3)cc12` (racemic) [Example 619, 4-amino-3-methyl-N-((1R)-1-(2-pyrimidinyl)ethyl)-N-((5-(trifluoromethyl)-2-pyridinyl)methyl)[1,2]oxazolo[4,5-c]quinoline-8-carboxamide and 4-amino-3-methyl-N-((1S)-1-(2-pyrimidinyl)ethyl)-N-((5-(trifluoromethyl)-2-pyridinyl)methyl)[1,2]oxazolo[4,5-c]quinoline-8-carboxamide]: the negative logarithm of the IC50 (pIC50) in the experiment on HCT116 WT cells is 5.97; in the experiment with HCT116 MTAP null cells it was 7.21.

The term pIC50 denotes the negative decadic logarithm of the IC50, by convention in mol/L.
